Read-outs that look alike come from different tables or passages of the source.
Columns and labels:
Format in all cases: in vivo
[1] = tested on: adult brown dog ticks (Rhipicephalus sanguineus); experiment: Tick DMSO contact assay, Compound 1 with amitraz, Example 15; details: Rhipicephalus sanguineus
Procedure: (§1) Dosages were serially diluted using this same formulation.
Scintillation vials were treated with commercial and experimental compounds using the same procedure described in Example 12 above. The treated vials were used to determine the contact toxicity of compounds against adult brown dog ticks (Rhipicephalus sanguineus). The ticks were supplied by Ecto Services Inc. Henderson, N.C.
Unfed adult ticks were released into a metal pan and 10 living ticks were aspirated into each vial. […] Two replicates were tested for each treatment and the results were averaged. Ticks were stimulated by gently exhaling in the vials. Within the same time period, the addition of amitraz to an equal dosage of compound 1 increased mean mortality.

fleas = experiment: Efficacy of combination of fipronil and amitraz against fleas on dogs; details: topical
Procedure: (§2) A fipronil formulation (commercial product) was prepared and stored separately from amitraz. Amitraz was formulated with the same carrier. Both parts, fipronil and amitraz in solvent(s) were stored separately and applied simultaneously. Amounts applied were calculated to keep dose at 10% (w/v) each in final formulation and 10 mg/kg BW of actives in amount applied.
The amitraz and fipronil composition described in Example 10 were used in this study. […] Treatment was applied by parting the hair on the midline of the neck, between the base of the skull and the shoulder blades, and applying the formulation directly onto the skin.

[2] = tested on: adult Rhipicephalus sanguineus ticks; experiment: whole plant or invertebrate; details: Rhipicephalus sanguineus
From the text: as §1

ticks = experiment: Efficacy of combination of fipronil with amitraz against ticks on dogs; details: 10 mg/kg BW of actives, topical
Procedure: as §2
In brief, treatment was applied by parting the hair on the midline of the neck, between the base of the skull and the shoulder blades, and applying the formulation directly onto the skin.

[3] = 6 h, read-out: 6 hour % Mortality Rep 1
[4] = 6 h, read-out: 6 hour % Mortality Rep 2
[5] = 6 h, read-out: 6 hour Avg. % Mortality
[6] = 24 h, read-out: 24 hour % Mortality Rep 1
[7] = 24 h, read-out: 24 hour % Mortality Rep 2
[8] = 24 h, read-out: 24 hour Avg. % Mortality
[9] = 48 h, read-out: 48 hour % Mortality Rep 1
[10] = 48 h, read-out: 48 hour % Mortality Rep 2
[11] = 48 h, read-out: 48 hour Avg. % Mortality

`Cc1ccc(/N=C/N(C)/C=N/c2ccc(C)cc2C)c(C)c1` [Amitraz, amitraz] showed a mortality at 6.25 ppm [1, 3] of 0%, a mortality at 12.5 ppm [1, 3] of 0% and a mortality at 25 ppm [1, 3] of 0%. The mortality at 6.25 ppm [1, 4] was 0%, the mortality at 12.5 ppm [1, 4] was 0% and the mortality at 25 ppm [1, 4] was 0%. It also gave a mortality at 6.25 ppm [1, 5] of 0%, a mortality at 12.5 ppm [1, 5] of 0% and a mortality at 25 ppm [1, 5] of 0%. For the same molecule, the mortality at 6.25 ppm [1, 6] was 0%, the mortality at 12.5 ppm [1, 6] was 0% and the mortality at 25 ppm [1, 6] was 0%. The mortality at 6.25 ppm [1, 7] was 0%, the mortality at 12.5 ppm [1, 7] was 0% and the mortality at 25 ppm [1, 7] was 0%. The mortality at 6.25 ppm [1, 8] was 0%, the mortality at 12.5 ppm [1, 8] was 0% and the mortality at 25 ppm [1, 8] was 0%. The mortality at 6.25 ppm [1, 9] was 0%, the mortality at 12.5 ppm [1, 9] was 0% and the mortality at 25 ppm [1, 9] was 10%. It also gave a mortality at 6.25 ppm [1, 10] of 0%, a mortality at 12.5 ppm [1, 10] of 0% and a mortality at 25 ppm [1, 10] of 10%. The mortality at 6.25 ppm [1, 11] was 0%, the mortality at 12.5 ppm [1, 11] was 0% and the mortality at 25 ppm [1, 11] was 10%. For the same molecule, the Efficacy against fleas (fleas; 2 days after treatment) was 14.3%, the Efficacy against fleas (fleas; 16 days after treatment) was 12.4% and the Efficacy against fleas (fleas; 23 days after treatment) was 16.3%. The Efficacy against fleas (fleas; 30 days after treatment) was 20.2%, the Efficacy against fleas (fleas; 37 days after treatment) was 32.5% and the Efficacy against fleas (fleas; 44 days after treatment) was 25.9%. The mortality at 6.25 ppm [2, 3] was 0%, the mortality at 12.5 ppm [2, 3] was 0% and the mortality at 25 ppm [2, 3] was 0%. For the same molecule, the mortality at 6.25 ppm [2, 4] was 0%, the mortality at 12.5 ppm [2, 4] was 0% and the mortality at 25 ppm [2, 4] was 0%. For the same molecule, the mortality at 6.25 ppm [2, 5] was 0%, the mortality at 12.5 ppm [2, 5] was 0% and the mortality at 25 ppm [2, 5] was 0%. It also gave a mortality at 6.25 ppm [2, 6] of 0%, a mortality at 12.5 ppm [2, 6] of 0% and a mortality at 25 ppm [2, 6] of 0%. The mortality at 6.25 ppm [2, 7] was 0%, the mortality at 12.5 ppm [2, 7] was 0% and the mortality at 25 ppm [2, 7] was 0%. The mortality at 6.25 ppm [2, 8] was 0%, the mortality at 12.5 ppm [2, 8] was 0% and the mortality at 25 ppm [2, 8] was 0%. The mortality at 6.25 ppm [2, 9] was 0%, the mortality at 12.5 ppm [2, 9] was 0% and the mortality at 25 ppm [2, 9] was 10%. It also gave a mortality at 6.25 ppm [2, 10] of 0%, a mortality at 12.5 ppm [2, 10] of 0% and a mortality at 25 ppm [2, 10] of 10%. The mortality at 6.25 ppm [2, 11] was 0%, the mortality at 12.5 ppm [2, 11] was 0% and the mortality at 25 ppm [2, 11] was 10%. It also gave an Efficacy against ticks (ticks; 2 days after treatment) of 95.1%, an Efficacy against ticks (ticks; 16 days after treatment) of 96.9% and an Efficacy against ticks (ticks; 23 days after treatment) of 95.0%. For the same molecule, the Efficacy against ticks (ticks; 30 days after treatment) was 64.9%, the Efficacy against ticks (ticks; 37 days after treatment) was 56.2% and the Efficacy against ticks (ticks; 44 days after treatment) was 28.3%.

— patent publication US8450357B2, “Compositions comprising an aryl pyrazole and/or a formamidine, methods and uses thereof” (Merial Limited, priority 2008, dated 2013)
